{"source": "patent US8119564B2", "about": "“Herbicidal control using sulfentrazone and metsulfuron” (FMC Corporation, priority 2009, dated 2012)", "key": {"[1]": {"tested_on": "field violet (Viola arvensis)", "assay": "Post-emergent herbicidal evaluation on turf plots, wild violet control", "type": "in vivo", "experimental": "(§1) Test compositions containing sulfentrazone (Dismiss™ Turf Herbicide), metsulfuron methyl (BLADE™ Selective Herbicide For Turfgrass) and mixtures thereof, were diluted with water to provide the appropriate test rate concentrations.\n(§2) The size of each experimental turf plot was 5 feet by 10 feet. The application of each test composition was performed with a pressurized back-pack sprayer, calibrated to spray 30 gallons per acre. Three replications were made for each test rate along with an untreated control plot.\n(§3) Test weeds were about 3 inches tall at the time of treatment. Control of ground ivy (Glechoma hederacea) and field violet (Viola arvensis) was evaluated at 6, 14, 28, 40 and 55 days after treatment (DAT) for each test rate. In order t to provide a measure of the effectiveness of a herbicide's performance weed control ratings were based on visual observations of the presence or absence of various weeds or of symptoms (necrosis, wilting, curling of leaves, discoloration etc.) on weeds compared to lack of symptoms. Ratings are based on the 0 to 100 rating system, where 0 equals no control and 100 equals complete control, which generally makes use of direct-percentage figures. In this system the standard basis for comparison is an untreated weedy check. Counts are made of each weed species found in the untreated area of the study. This provides a basis to give a precise representation of both weed infestation and degree of control provided by various chemical treatments. Counts are made on randomly selected areas which are generally 1 square foot to 1 square yard in size. Ratings are made for each weed species found in the untreated treatments. For example, a random area in an untreated plot has 10 yellow nutsedge plants per square foot equaling 0% control. A treated plot has only 1 yellow nutsedge plant found in the randomly selected area equaling 90% control.\n(§4) Compositions of the present invention were tested for herbicidal efficacy in the manner of Example 1. Table A below summarizes the test data for ratios of sulfentrazone to metsulfuron methyl that are outside the scope of the present invention. The Colby equation expected values are also in Table A."}, "[2]": {"tested_on": "ground ivy (Glechoma hederacea)", "assay": "Post-emergent herbicidal evaluation on turf plots, ground ivy control", "type": "in vivo", "experimental": "as §1, §2, §3, §4"}, "[3]": {"conditions": "0.01 lb/ac, 6 DAT, NIS 0.25% V/V"}, "[4]": {"conditions": "0.01 lb/ac, 14 DAT, NIS 0.25% V/V"}, "[5]": {"conditions": "0.01 lb/ac, 28 DAT, NIS 0.25% V/V"}, "[6]": {"conditions": "0.01 lb/ac, 40 DAT, NIS 0.25% V/V"}, "[7]": {"conditions": "0.01 lb/ac, 55 DAT, NIS 0.25% V/V"}, "[8]": {"conditions": "0.02 lb/ac, 6 DAT, NIS 0.25% V/V"}, "[9]": {"conditions": "0.02 lb/ac, 14 DAT, NIS 0.25% V/V"}, "[10]": {"conditions": "0.02 lb/ac, 28 DAT, NIS 0.25% V/V"}, "[11]": {"conditions": "0.02 lb/ac, 40 DAT, NIS 0.25% V/V"}, "[12]": {"conditions": "0.02 lb/ac, 55 DAT, NIS 0.25% V/V"}, "[13]": {"conditions": "0.04 lb/ac, 6 DAT, NIS 0.25% V/V"}, "[14]": {"conditions": "0.04 lb/ac, 14 DAT, NIS 0.25% V/V"}, "[15]": {"conditions": "0.04 lb/ac, 28 DAT, NIS 0.25% V/V"}, "[16]": {"conditions": "0.04 lb/ac, 40 DAT, NIS 0.25% V/V"}, "[17]": {"conditions": "0.04 lb/ac, 55 DAT, NIS 0.25% V/V"}}}
{"smiles": "COC(=O)c1ccccc1S(=O)(=O)NC(=O)Nc1nc(C)nc(OC)n1", "note": "[Metsulfuron Methyl, methyl 2-[[[[(4-methoxy-6-methyl-1,3,5-triazin-2-yl)amino]carbonyl]amino]sulfonyl]benzoate]", "values": [{"measurement": "% Control of Weeds, Wild Violet Control", "setting": "[1]; [3]", "result": 0, "unit": "%"}, {"measurement": "% Control of Weeds, Wild Violet Control", "setting": "[1]; [4]", "result": 0, "unit": "%"}, {"measurement": "% Control of Weeds, Wild Violet Control", "setting": "[1]; [5]", "result": 58.3, "unit": "%"}, {"measurement": "% Control of Weeds, Wild Violet Control", "setting": "[1]; [6]", "result": 63.3, "unit": "%"}, {"measurement": "% Control of Weeds, Wild Violet Control", "setting": "[1]; [7]", "result": 66.7, "unit": "%"}, {"measurement": "% Control of Weeds, Wild Violet Control", "setting": "[1]; [8]", "result": 0, "unit": "%"}, {"measurement": "% Control of Weeds, Wild Violet Control", "setting": "[1]; [9]", "result": 3.3, "unit": "%"}, {"measurement": "% Control of Weeds, Wild Violet Control", "setting": "[1]; [10]", "result": 50, "unit": "%"}, {"measurement": "% Control of Weeds, Wild Violet Control", "setting": "[1]; [11]", "result": 75, "unit": "%"}, {"measurement": "% Control of Weeds, Wild Violet Control", "setting": "[1]; [12]", "result": 86.7, "unit": "%"}, {"measurement": "% Control of Weeds, Wild Violet Control", "setting": "[1]; [13]", "result": 0, "unit": "%"}, {"measurement": "% Control of Weeds, Wild Violet Control", "setting": "[1]; [14]", "result": 0, "unit": "%"}, {"measurement": "% Control of Weeds, Wild Violet Control", "setting": "[1]; [15]", "result": 51.7, "unit": "%"}, {"measurement": "% Control of Weeds, Wild Violet Control", "setting": "[1]; [16]", "result": 66.7, "unit": "%"}, {"measurement": "% Control of Weeds, Wild Violet Control", "setting": "[1]; [17]", "result": 66.7, "unit": "%"}, {"measurement": "% Control of Weeds, Ground Ivy Control", "setting": "[2]; [3]", "result": 5, "unit": "%"}, {"measurement": "% Control of Weeds, Ground Ivy Control", "setting": "[2]; [4]", "result": 33, "unit": "%"}, {"measurement": "% Control of Weeds, Ground Ivy Control", "setting": "[2]; [5]", "result": 83, "unit": "%"}, {"measurement": "% Control of Weeds, Ground Ivy Control", "setting": "[2]; [6]", "result": 96, "unit": "%"}, {"measurement": "% Control of Weeds, Ground Ivy Control", "setting": "[2]; [7]", "result": 97, "unit": "%"}, {"measurement": "% Control of Weeds, Ground Ivy Control", "setting": "[2]; [8]", "result": 0, "unit": "%"}, {"measurement": "% Control of Weeds, Ground Ivy Control", "setting": "[2]; [9]", "result": 20, "unit": "%"}, {"measurement": "% Control of Weeds, Ground Ivy Control", "setting": "[2]; [10]", "result": 75, "unit": "%"}, {"measurement": "% Control of Weeds, Ground Ivy Control", "setting": "[2]; [11]", "result": 94, "unit": "%"}, {"measurement": "% Control of Weeds, Ground Ivy Control", "setting": "[2]; [12]", "result": 100, "unit": "%"}, {"measurement": "% Control of Weeds, Ground Ivy Control", "setting": "[2]; [13]", "result": 0, "unit": "%"}, {"measurement": "% Control of Weeds, Ground Ivy Control", "setting": "[2]; [14]", "result": 36.7, "unit": "%"}, {"measurement": "% Control of Weeds, Ground Ivy Control", "setting": "[2]; [15]", "result": 90, "unit": "%"}, {"measurement": "% Control of Weeds, Ground Ivy Control", "setting": "[2]; [16]", "result": 97, "unit": "%"}, {"measurement": "% Control of Weeds, Ground Ivy Control", "setting": "[2]; [17]", "result": 100, "unit": "%"}]}
{"smiles": "Cc1nn(-c2cc(NS(C)(=O)=O)c(Cl)cc2Cl)c(=O)n1C(F)F", "note": "[Sulfentrazone, N-[2,4-dichloro-5-[4-difluoromethyl-4,5-dihydro-3-methyl-5-oxo-1H-1,2,4-triazol-1-yl]phenyl]methanesulfonamide]", "values": [{"measurement": "% Control of Weeds, Wild Violet Control", "setting": "[1]; 0.125 lb/ac, 6 DAT", "result": 5, "unit": "%"}, {"measurement": "% Control of Weeds, Wild Violet Control", "setting": "[1]; 0.125 lb/ac, 14 DAT", "result": 0, "unit": "%"}, {"measurement": "% Control of Weeds, Wild Violet Control", "setting": "[1]; 0.125 lb/ac, 28 DAT", "result": 0, "unit": "%"}, {"measurement": "% Control of Weeds, Wild Violet Control", "setting": "[1]; 0.125 lb/ac, 40 DAT", "result": 0, "unit": "%"}, {"measurement": "% Control of Weeds, Wild Violet Control", "setting": "[1]; 0.125 lb/ac, 55 DAT", "result": 0, "unit": "%"}, {"measurement": "% Control of Weeds, Wild Violet Control", "setting": "[1]; 0.25 lb/ac, 6 DAT", "result": 5, "unit": "%"}, {"measurement": "% Control of Weeds, Wild Violet Control", "setting": "[1]; 0.25 lb/ac, 14 DAT", "result": 0, "unit": "%"}, {"measurement": "% Control of Weeds, Wild Violet Control", "setting": "[1]; 0.25 lb/ac, 28 DAT", "result": 0, "unit": "%"}, {"measurement": "% Control of Weeds, Wild Violet Control", "setting": "[1]; 0.25 lb/ac, 40 DAT", "result": 0, "unit": "%"}, {"measurement": "% Control of Weeds, Wild Violet Control", "setting": "[1]; 0.25 lb/ac, 55 DAT", "result": 0, "unit": "%"}, {"measurement": "% Control of Weeds, Wild Violet Control", "setting": "[1]; 0.38 lb/ac, 6 DAT", "result": 1.7, "unit": "%"}, {"measurement": "% Control of Weeds, Wild Violet Control", "setting": "[1]; 0.38 lb/ac, 14 DAT", "result": 0, "unit": "%"}, {"measurement": "% Control of Weeds, Wild Violet Control", "setting": "[1]; 0.38 lb/ac, 28 DAT", "result": 10, "unit": "%"}, {"measurement": "% Control of Weeds, Wild Violet Control", "setting": "[1]; 0.38 lb/ac, 40 DAT", "result": 0, "unit": "%"}, {"measurement": "% Control of Weeds, Wild Violet Control", "setting": "[1]; 0.38 lb/ac, 55 DAT", "result": 23.3, "unit": "%"}, {"measurement": "% Control of Weeds, Ground Ivy Control", "setting": "[2]; 0.125 lb/ac, 6 DAT", "result": 11.7, "unit": "%"}, {"measurement": "% Control of Weeds, Ground Ivy Control", "setting": "[2]; 0.125 lb/ac, 14 DAT", "result": 10, "unit": "%"}, {"measurement": "% Control of Weeds, Ground Ivy Control", "setting": "[2]; 0.125 lb/ac, 28 DAT", "result": 0, "unit": "%"}, {"measurement": "% Control of Weeds, Ground Ivy Control", "setting": "[2]; 0.125 lb/ac, 40 DAT", "result": 0, "unit": "%"}, {"measurement": "% Control of Weeds, Ground Ivy Control", "setting": "[2]; 0.125 lb/ac, 55 DAT", "result": 0, "unit": "%"}, {"measurement": "% Control of Weeds, Ground Ivy Control", "setting": "[2]; 0.25 lb/ac, 6 DAT", "result": 10, "unit": "%"}, {"measurement": "% Control of Weeds, Ground Ivy Control", "setting": "[2]; 0.25 lb/ac, 14 DAT", "result": 13.3, "unit": "%"}, {"measurement": "% Control of Weeds, Ground Ivy Control", "setting": "[2]; 0.25 lb/ac, 28 DAT", "result": 0, "unit": "%"}, {"measurement": "% Control of Weeds, Ground Ivy Control", "setting": "[2]; 0.25 lb/ac, 40 DAT", "result": 0, "unit": "%"}, {"measurement": "% Control of Weeds, Ground Ivy Control", "setting": "[2]; 0.25 lb/ac, 55 DAT", "result": 0, "unit": "%"}, {"measurement": "% Control of Weeds, Ground Ivy Control", "setting": "[2]; 0.38 lb/ac, 6 DAT", "result": 11.7, "unit": "%"}, {"measurement": "% Control of Weeds, Ground Ivy Control", "setting": "[2]; 0.38 lb/ac, 14 DAT", "result": 6.7, "unit": "%"}, {"measurement": "% Control of Weeds, Ground Ivy Control", "setting": "[2]; 0.38 lb/ac, 28 DAT", "result": 3.3, "unit": "%"}, {"measurement": "% Control of Weeds, Ground Ivy Control", "setting": "[2]; 0.38 lb/ac, 40 DAT", "result": 0, "unit": "%"}, {"measurement": "% Control of Weeds, Ground Ivy Control", "setting": "[2]; 0.38 lb/ac, 55 DAT", "result": 0, "unit": "%"}]}
